Laboratory results as given in patent publication US20240083886A1, “HETEROCYCLIC GLP-1 AGONISTS” (Gasherbrum Bio, Inc., priority 2020, published 2024).

What follows are compounds tested against GLP-1 Receptor (Homo sapiens, UniProt P43220) (assay: GLP-1R agonist cAMP stimulation assay). Conditions: not given.
Assay type: cell-based
Experimental: Activation of GLP-1 receptor is known to stimulate cyclic AMP (cAMP) production in cells which indicates primary coupling to the Gαs subunit of the G protein heterotrimeric complex.
To optimize functional activity directed toward Gαs coupling, a HEK293/CRE-Luc cell line developed by HDB stably expressing the GLP-1 Receptor was used. 200× concentration of compound working solutions were prepared (Agilent Technologies Bravo) with ½ log serial dilution in 384-well Echo LDV plate (Labcyte, Cat #LP-0200). 50 nL/well 200× concentration of compound working solutions were moved to 384-well white low volume plate (Greiner, Cat #784075) using Labcyte ECHO550. 1×10^5 cells/mL HEK293/GLP1R/CRE-LUC(HD Biosciences) cell suspensions prepared with assay buffer[DPBS containing 0.5 mM IBMX(Sigma, Cat #15879) and 0.1% BSA (GENVIEW, Cat #FA016-100 g)], 10 uL cell suspensions were added to each well of previous generated assay plate which already contains 50 nl compound at 200×concentration using ThermoFisher Multidrop Combi (1000 cells/well). Seal the plate and incubate at 37° C. with 5% CO2 for 30 min.
After incubation the cAMP assay signal was generated using cAMP dynamic 2 Kit (Cisbio). 5 μL cAMP-d2 working solution was added to each well, followed with 5 μL Anti-cAMP antibody-cryptate working solution added to each well using ThermoFisher Multidrop Combi. Incubate at room temperature for 1 hour protected from light. Read the fluorescence at 665 and 615 nm with Reader PerkinElmer EnVision.
% Activity=100%×(mean RLU of test sample−mean RLU of vehicle control)/(mean RLU of MAX control−mean RLU of vehicle control))

GLP-1 Receptor, sequence (P43220 24-463, species assumed): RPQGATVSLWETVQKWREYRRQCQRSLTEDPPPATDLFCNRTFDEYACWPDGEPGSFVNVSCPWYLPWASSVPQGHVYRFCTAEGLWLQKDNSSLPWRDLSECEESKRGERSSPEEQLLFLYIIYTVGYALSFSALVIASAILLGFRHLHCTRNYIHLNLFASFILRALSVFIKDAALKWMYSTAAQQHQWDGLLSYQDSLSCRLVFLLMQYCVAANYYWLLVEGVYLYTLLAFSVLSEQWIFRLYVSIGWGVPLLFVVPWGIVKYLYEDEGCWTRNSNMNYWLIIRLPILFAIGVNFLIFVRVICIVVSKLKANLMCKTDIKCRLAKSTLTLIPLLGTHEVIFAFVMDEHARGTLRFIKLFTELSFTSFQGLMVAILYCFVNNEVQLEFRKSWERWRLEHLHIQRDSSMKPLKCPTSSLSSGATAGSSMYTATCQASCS

EC50 [nM] | SMILES
0.22 | FC(F)(F)c1nnc(-c2cnc3c(c2)nc(CN2CCC(Oc4cccc(Cc5ccc(Cl)cc5)n4)CC2)n3C[C@@H]2CCO2)[nH]1 [Compound 143a, 2-[(4-chlorophenyl)methyl]-6-({1-[(3-{[(2S)-oxetan-2-yl]methyl}-6-[5-(trifluoromethyl)-4H-1,2,4-triazol-3-yl]-3H-imidazo[4,5-b]pyridin-2-yl)methyl]piperidin-4-yl}oxy)pyridine]
0.32 | Cc1n[nH]c(-c2ccc3c(c2)nc(CN2CCC(Oc4ccnc(Cc5ccc(Cl)cc5)n4)CC2)n3C[C@@H]2CCO2)n1 [Compound 126a, 2-{[4-({2-[(4-chlorophenyl)methyl]pyrimidin-4-yl}oxy)piperidin-1-yl]methyl}-5-(3-methyl-1H-1,2,4-triazol-5-yl)-1-{[(2S)-oxetan-2-yl]methyl}-1H-1,3-benzodiazole]
1.7 | FC(F)(F)c1nnc(-c2cc3nc(CN4CCC(Oc5cccc(Cc6ccc(Cl)cc6)n5)CC4)n(C[C@@H]4CCO4)c3cn2)[nH]1 [Compound 140a, 2-[(4-chlorophenyl)methyl]-6-({1-[(3-{[(2S)-oxetan-2-yl]methyl}-6-[5-(trifluoromethyl)-4H-1,2,4-triazol-3-yl]-3H-imidazo[4,5-c]pyridin-2-yl)methyl]piperidin-4-yl}oxy)pyridine]
0.79 | Cn1cc(-c2ccc3c(c2)nc(CN2CCC(Oc4ccnc(Cc5ccc(Cl)cc5)n4)CC2)n3C[C@@H]2CCO2)nn1 [Compound 130a, 2-{[4-({2-[(4-chlorophenyl)methyl]pyrimidin-4-yl}oxy)piperidin-1-yl]methyl}-5-(1-methyl-1H-1,2,3-triazol-4-yl)-1-{[(2S)-oxetan-2-yl]methyl}-1H-1,3-benzodiazole]

Same assay, conditions: HEK293/GLP1R/CRE-LUC cells, cAMP dynamic 2 Kit (Cisbio), 30 min incubation at 37° C.; read-out: EC50

EC50 [nM] | SMILES
0.58 | Fc1cc(Cl)ccc1Cc1cccc(OC2CCN(Cc3nc4cc(-c5nnc(C(F)(F)F)[nH]5)nnc4n3C[C@@H]3CCO3)CC2)n1 [Compound 181a, 2-[(4-chloro-2-fluorophenyl)methyl]-6-({1-[(7-{[(2S)-oxetan-2-yl]methyl}-3-[5-(trifluoromethyl)-4H-1,2,4-triazol-3-yl]-7H-imidazo[4,5-c]pyridazin-6-yl)methyl]piperidin-4-yl}oxy)pyridine]
0.23 | O=c1[nH]c(-c2cc3nc(CN4CCC(Oc5ccnc(Cc6ccc(Cl)cc6F)n5)CC4)n(C[C@@H]4CCO4)c3cn2)no1 [Compound 167a, 3-(2-{[4-({2-[(4-chloro-2-fluorophenyl)methyl]pyrimidin-4-yl}oxy)piperidin-1-yl]methyl}-3-{[(2S)-oxetan-2-yl]methyl}-3H-imidazo[4,5-c]pyridin-6-yl)-4,5-dihydro-1,2,4-oxadiazol-5-one]
0.2 | Fc1cc(Cl)ccc1Cc1nccc(OC2CCN(Cc3nc4cc(-c5nnc(C(F)(F)F)[nH]5)nnc4n3C[C@@H]3CCO3)CC2)n1 [Compound 182a, 2-[(4-chloro-2-fluorophenyl)methyl]-4-({1-[(7-{[(2S)-oxetan-2-yl]methyl}-3-[5-(trifluoromethyl)-4H-1,2,4-triazol-3-yl]-7H-imidazo[4,5-c]pyridazin-6-yl)methyl]piperidin-4-yl}oxy)pyrimidine]
0.54 | Fc1cc2c(cc1-c1nnc(C(F)(F)F)[nH]1)nc(CN1CCC(Oc3ccnc(Cc4ccc(Cl)cc4)n3)CC1)n2C[C@@H]1CCO1 [Compound 122a, 2-{[4-({2-[(4-chlorophenyl)methyl]pyrimidin-4-yl}oxy)piperidin-1-yl]methyl}-6-fluoro-1-{[(2S)-oxetan-2-yl]methyl}-5-[5-(trifluoromethyl)-4H-1,2,4-triazol-3-yl]-1H-1,3-benzodiazole]
0.13 | Fc1cc(Cl)ccc1Cc1nccc(OC2CCN(Cc3nc4cc(-c5nnn[nH]5)ncc4n3C[C@@H]3CCO3)CC2)n1 [Compound 177a, 2-[(4-chloro-2-fluorophenyl)methyl]-4-({1-[(3-{[(2S)-oxetan-2-yl]methyl}-6-(1H-1,2,3,4-tetrazol-5-yl)-3H-imidazo[4,5-c]pyridin-2-yl)methyl]piperidin-4-yl}oxy)pyrimidine]
1.6 | CCc1ccc(C(=O)Nc2ccc3c(c2)nc(CN2CCC(Oc4ccnc(Cc5ccc(Cl)cc5F)n4)CC2)n3C[C@@H]2CCO2)cn1 [Compound 114a, N-(2-{[4-({2-[(4-chloro-2-fluorophenyl)methyl]pyrimidin-4-yl}oxy)piperidin-1-yl]methyl}-1-{[(2S)-oxetan-2-yl]methyl}-1H-1,3-benzodiazol-5-yl)-6-ethylpyridine-3-carboxamide]
0.37 | COc1ccc(C(=O)Nc2ccc3c(c2)nc(CN2CCC(Oc4ccnc(Cc5ccc(Cl)cc5F)n4)CC2)n3C[C@@H]2CCO2)cn1 [Compound 112a, N-(2-{[4-({2-[(4-chloro-2-fluorophenyl)methyl]pyrimidin-4-yl}oxy)piperidin-1-yl]methyl}-1-{[(2S)-oxetan-2-yl]methyl}-1H-1,3-benzodiazol-5-yl)-6-methoxypyridine-3-carboxamide]
0.081 | Cc1cncc(C(=O)Nc2ccc3c(c2)nc(CN2CCC(Oc4ccnc(Cc5ccc(Cl)cc5)n4)CC2)n3C[C@@H]2CCO2)c1 [Compound 101a, N-(2-{[4-({2-[(4-chlorophenyl)methyl]pyrimidin-4-yl}oxy)piperidin-1-yl]methyl}-1-{[(2S)-oxetan-2-yl]methyl}-1H-1,3-benzodiazol-5-yl)-5-methylpyridine-3-carboxamide]
0.17 | O=c1[nH]c(-c2cc3nc(CN4CCC(Oc5nc(Cc6ccc(Cl)cc6F)ncc5F)CC4)n(C[C@@H]4CCO4)c3cn2)no1 [Compound 171a, 3-(2-{[4-({2-[(4-chloro-2-fluorophenyl)methyl]-5-fluoropyrimidin-4-yl}oxy)piperidin-1-yl]methyl}-3-{[(2S)-oxetan-2-yl]methyl}-3H-imidazo[4,5-c]pyridin-6-yl)-4,5-dihydro-1,2,4-oxadiazol-5-one]
4.4 | FC(F)(F)c1cnn(Cc2cccc(OC3CCN(Cc4nc5cc(-c6nnc(C(F)(F)F)[nH]6)ncc5n4C[C@@H]4CCO4)CC3)n2)c1 [Compound 186a, 2-({1-[(3-{[(2S)-oxetan-2-yl]methyl}-6-[5-(trifluoromethyl)-4H-1,2,4-triazol-3-yl]-3H-imidazo[4,5-c]pyridin-2-yl)methyl]piperidin-4-yl}oxy)-6-{[4-(trifluoromethyl)-1H-pyrazol-1-yl]methyl}pyridine]
0.2 | N#CC1(Cn2c(CN3CCC(Oc4nc(Cc5ccc(Cl)cc5)ncc4F)CC3)nc3cc(-c4nnc(C(F)(F)F)[nH]4)ncc32)CC1 [Compound 178, 1-[(2-{[4-({2-[(4-chlorophenyl)methyl]-5-fluoropyrimidin-4-yl}oxy)piperidin-1-yl]methyl}-6-[5-(trifluoromethyl)-4H-1,2,4-triazol-3-yl]-3H-imidazo[4,5-c]pyridin-3-yl)methyl]cyclopropane-1-carbonitrile]
0.17 | Fc1cc(Cl)ccc1Cc1ncc(F)c(OC2CCN(Cc3nc4cc(-c5nnn[nH]5)ncc4n3C[C@@H]3CCO3)CC2)n1 [Compound 175a, 2-[(4-chloro-2-fluorophenyl)methyl]-5-fluoro-4-({1-[(3-{[(2S)-oxetan-2-yl]methyl}-6-(1H-1,2,3,4-tetrazol-5-yl)-3H-imidazo[4,5-c]pyridin-2-yl)methyl]piperidin-4-yl}oxy)pyrimidine]
